Measurements: paper PMC12188165, “Engineering of the Thiamine Diphosphate‐Dependent JanthE for the Synthesis of Tertiary Alcohols” (Chemistry (Weinheim an Der Bergstrasse, Germany), 2025)
Like-named read-outs stand apart in the source and are kept apart here. Values belong to the molecule of their own block, whether it stands above or below them.

Columns and labels:
[1] = biological target: T1, JanthE (Janthinobacterium sp. HH01, UniProt A0AAT8XUE4, K568S, form not given); assay: initial-rate kinetics, formation of product […]; format: biochemical; settings: 1 mM Mg2+, 0.05 mM ThDP, 200 mM NaCl, 100 mM sodium phosphate pH 8, read-out: K567S
T1 construct: purified enzyme; expression and tag details only in supplement

[2] = substrate: CCC(=O)C(=O)O; assay: purified protein; format: biochemical, Janthinobacterium sp. HH01; settings: 20 mM phenoxy-2-propanone co-substrate, 1 mM Mg2+, 0.05 mM ThDP, 200 mM NaCl, 100 mM sodium phosphate pH 8
[3] = substrate: CC(=O)COc1ccccc1; assay: purified protein; format: biochemical, Janthinobacterium sp. HH01; settings: 50 mM 2-oxobutanoate co-substrate, 1 mM Mg2+, 0.05 mM ThDP, 200 mM NaCl, 100 mM sodium phosphate pH 8

T1 sequence (A0AAT8XUE4 entry or part of it K568S, form open): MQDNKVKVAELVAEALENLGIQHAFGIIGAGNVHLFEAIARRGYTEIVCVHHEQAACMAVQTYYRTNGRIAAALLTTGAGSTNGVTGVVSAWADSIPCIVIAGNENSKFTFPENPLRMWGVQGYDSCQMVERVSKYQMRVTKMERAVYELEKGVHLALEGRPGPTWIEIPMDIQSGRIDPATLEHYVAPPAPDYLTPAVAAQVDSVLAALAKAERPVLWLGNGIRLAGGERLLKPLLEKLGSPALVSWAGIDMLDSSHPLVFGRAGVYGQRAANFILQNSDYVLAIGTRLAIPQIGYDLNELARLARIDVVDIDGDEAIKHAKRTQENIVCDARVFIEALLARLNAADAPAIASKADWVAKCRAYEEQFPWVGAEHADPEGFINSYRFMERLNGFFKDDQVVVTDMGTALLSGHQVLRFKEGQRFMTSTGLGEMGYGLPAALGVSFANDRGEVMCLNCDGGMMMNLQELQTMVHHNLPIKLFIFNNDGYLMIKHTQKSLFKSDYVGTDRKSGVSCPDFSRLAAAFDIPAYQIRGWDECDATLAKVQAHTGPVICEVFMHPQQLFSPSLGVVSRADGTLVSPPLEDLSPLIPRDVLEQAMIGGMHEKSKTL

- Km ([1]; 20 mM phenoxy-2-propanone co-substrate): 0.74 ± 0.31 mM
Molecule: CCC(=O)C(=O)O [compound 2, 2-oxobutanoate]

- Km ([1]; 50 mM 2-oxobutanoate co-substrate): 31.8 ± 6 mM
Molecule: CC(=O)COc1ccccc1 [compound 6, phenoxy-2-propanone]

B1: JanthE (Janthinobacterium sp. HH01) (protein)
chain: MQDNKVKVAELVAEALENLGIQHAFGIIGAGNVHLFEAIARRGYTEIVCVHHEQAACMAVQTYYRTNGRIAAALLTTGAGSTNGVTGVVSAWADSIPCIVIAGNENSKFTFPENPLRMWGVQGYDSCQMVERVSKYQMRVTKMERAVYELEKGVHLALEGRPGPTWIEIPMDIQSGRIDPATLEHYVAPPAPDYLTPAVAAQVDSVLAALAKAERPVLWLGNGIRLAGGERLLKPLLEKLGSPALVSWAGIDMLDSSHPLVFGRAGVYGQRAANFILQNSDYVLAIGTRLAIPQIGYDLNELARLARIDVVDIDGDEAIKHAKRTQENIVCDARVFIEALLARLNAADAPAIASKADWVAKCRAYEEQFPWVGAEHADPEGFINSYRFMERLNGFFKDDQVVVTDMGTALLSGHQVLRFKEGQRFMTSTGLGEMGYGLPAALGVSFANDRGEVMCLNCDGGMMMNLQELQTMVHHNLPIKLFIFNNDGYLMIKHTQKSLFKSDYVGTDRKSGVSCPDFSRLAAAFDIPAYQIRGWDECDATLAKVQAHTGPVICEVFMHPQQLFSPKLGVVSRADGTLVSPPLEDLSPLIPRDVLEQAMIGGMHEKSKTL
notes: purified enzyme; expression and tag details only in supplement
- Km [2]: 0.92 ± 0.26 mM
- Km [3]: 24.6 ± 3.8 mM
